Experimental data reported in US7718614B2 (Kurume University, priority 2003, dated 2010).
Where “and” joins values, the source holds several entries; their conditions need not be identical. Identical values can stand only once.

Tests used:
HRPC patients [1] = conditions: phase III study; cited from earlier work
PBMCs [2] = assay: Immunosuppression during combination therapy, Example 2; conditions: half dose (280 mg/day) with the peptide
PBMCs [3] = assay: Monitoring of estramustine-induced immunosuppression (IFN-γ production of PBMCs to PHA, EBV-peptide and vaccinated peptides), Example 1
HRPC patients [4] = assay: Combination therapy by dose of estramustine phosphate, Example 3; type: in vivo, human
peptide-specific IgG [5] = assay: ELISA of serum anti-peptide IgG, Example 2; type: in vivo, human; set-up: key: −: absent; +: present, low titer; ++: present, high titer; conditions: serum of the individual patient, pre-vaccination
Method: Peptide-specific CTL precursors in PBMCs were detected using a previously reported culture method, while an ELISA was used to detect the serum IgG levels specific for the peptides administrated, as reported previously. In addition, a new monitoring method was conducted to carefully measure the estramustine-induced immunosuppression. Namely, PBMCs were harvested every 2 weeks and were cultured (10^4 cells/well) for 2 days in triplicate assays with […] of phytohemagglutinin (PHA), 10 ng/ml of Epstein-Bar virus (EBV)-derived peptide with HLA-A24 or -A2 binding motif, and 10 ng/ml of two different peptides under vaccination. After 2 days in culture, the amounts of IFN-γ in cell free supernatants were measured in triplicate assays, and viable cell numbers were also counted. To avoid biases in each assay, all the PBMCs were once cryopreserved and the four different PBMCs (two from healthy donors, one from patients PBMCs harvested 2 weeks before the latest vaccination, and one from the latest vaccination) were thawed at the same time in the morning of the experiment. The PBMCs from healthy donors were from the same donors throughout the series of immunological monitoring. Responses (IFN-γ production) to PHA, EBV-peptide, and the vaccinated peptides were considered to be mediated by resting T cells, memory T cells, and activated T cells, respectively.
Except for the following points, substantially the same approach was employed as Example 1.

[6] = tested on: peptide-specific CTL precursors in PBMCs; assay: Peptide-specific CTL precursor assay (IFN-γ production of peptide-stimulated PBMCs), Example 1; type: cell-based, human; conditions: PBMCs of the individual case;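 note: PBMCs cultured with each peptide at 10 µM, restimulated at 20 µM every 3 days up to 12 days, then 18 hr with peptide-pulsed target cells, IFN-γ by ELISA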
Method: Before the first vaccination and 7 days after every 6th vaccination, 30 ml of peripheral blood was obtained, and PBMCs were isolated by means of Ficoll-Conray density gradient centrifugation. Peptide-specific CTL precursors in PBMCs were detected using a previously reported culture method [24]. Briefly, PBMCs (1×10^5 cells/well) were incubated with 10 μM of each peptide in U-bottom-type 96-well microculture plates (Nunc, Roskilde, Denmark) in 200 μl of culture medium. The culture medium contained 45% RPMI-1640 medium, 45% AIM-V™ medium (Invitrogen Corp., Carlsbad, Calif.), 10% FCS, 100 U/ml of interleukin-2 (IL-2) and 0.1 mM MEM nonessential amino acid solution (Invitrogen Corp.). Half of the medium was removed and replaced with the new medium containing a corresponding peptide (20 μM) every 3 days for up to 12 days. […] The target cells (C1R-A2402 or T2, 1×10^4/well) were pulsed with each peptide (10 μM) for 2 hr, and then effector cells (1×10^5/well) were added to each well with the final volume of 200 μl. After incubation for 18 hr, the supernatants (100 μl) were collected, and the amounts of IFN-γ were measured using an enzyme-linked immuno-sorbent assay (ELISA) (limit of sensitivity: 10 pg/ml). All experiments were performed in the four different wells with duplicate assays. […] Peptides were chosen based upon evaluation of all 4 wells by the order shown above.
Peptide-specific CTL precursors in PBMCs were detected using a previously reported culture method [24], while an ELISA was used to detect the serum IgG levels specific for the peptides administrated, as reported previously [13-15]. […] Namely, PBMCs were harvested every 2 weeks and were cultured (10^4 cells/well) for 2 days in triplicate assays with 10 μl M of phytohemagglutinin (PHA), 10 ng/ml of Epstein-Bar virus (EBV)-derived peptide with HLA-A24 or -A2 binding motif, and 10 ng/ml of two different peptides under vaccination. After 2 days in culture, the amounts of IFN-γ in cell free supernatants were measured in triplicate assays, and viable cell numbers were also counted. To avoid biases in each assay, all the PBMCs were once cryopreserved and the four different PBMCs (two from healthy donors, one from patients PBMCs harvested 2 weeks before the latest vaccination, and one from the latest vaccination) were thawed at the same time in the morning of the experiment. The PBMCs from healthy donors were from the same donors throughout the series of immunological monitoring. Responses (IFN-γ production) to PHA, EBV-peptide, and the vaccinated peptides were considered to be mediated by resting T cells, memory T cells, and activated T cells, respectively.

[7] = tested on: peptide-specific CTL precursors in PBMCs; assay: Peptide-specific CTL precursor assay (IFN-γ production), Example 2; type: cell-based, human; conditions: pre-vaccination PBMCs of the individual patient; response to HIV peptide subtracted
Method: Before the first vaccination and 7 days after every 6th vaccination, 30 ml of peripheral blood was obtained, and PBMCs were isolated by means of Ficoll-Conray density gradient centrifugation. Peptide-specific CTL precursors in PBMCs were detected using a previously reported culture method [24]. Briefly, PBMCs (1×10^5 cells/well) were incubated with 10 μM of each peptide in U-bottom-type 96-well microculture plates (Nunc, Roskilde, Denmark) in 200 μl of culture medium. The culture medium contained 45% RPMI-1640 medium, 45% AIM-V™ medium (Invitrogen Corp., Carlsbad, Calif.), 10% FCS, 100 U/ml of interleukin-2 (IL-2) and 0.1 mM MEM nonessential amino acid solution (Invitrogen Corp.). Half of the medium was removed and replaced with the new medium containing a corresponding peptide (20 μM) every 3 days for up to 12 days. […] The target cells (C1R-A2402 or T2, 1×10^4/well) were pulsed with each peptide (10 μM) for 2 hr, and then effector cells (1×10^5/well) were added to each well with the final volume of 200 μl. After incubation for 18 hr, the supernatants (100 μl) were collected, and the amounts of IFN-γ were measured using an enzyme-linked immuno-sorbent assay (ELISA) (limit of sensitivity: 10 pg/ml). All experiments were performed in the four different wells with duplicate assays.
All patients were vaccinated with up to 4 peptides selected from the 16 candidates by pre-vaccination measurements.

peptide-specific IgG [8] = assay: ELISA of serum IgG specific for the administered peptides, Example 1; type: in vivo, human; set-up: key: −: absent; +: present, low titer; ++: present, high titer; conditions: serum of the individual case
[9] = estramustine 140 mg/day combined with peptide vaccination, 4 cases
[10] = estramustine 280 mg/day combined with peptide vaccination, 32 cases
[11] = estramustine 560 mg/day combined with peptide vaccination, 5 cases

Compound: CC[C@]1(O)C[C@@H]2CN(CCc3c([nH]c4ccccc34)[C@@](C(=O)OC)(c3cc4c(cc3OC)N(C)[C@H]3[C@@](O)(C(=O)OC)[C@H](OC(C)=O)[C@]5(CC)C=CCN6CC[C@]43[C@@H]65)C2)C1 [vinblastine]
- Rate of neutropenia, grade 2 (HRPC patients [1]): 27%
- Rate of neutropenia, grade 3 (HRPC patients [1]): 18%
- Rate of neutropenia, grade 4 (HRPC patients [1]): 9%

Compound: C[C@]12CC[C@@H]3c4ccc(OC(=O)N(CCCl)CCCl)cc4CC[C@H]3[C@@H]1CC[C@@H]2OP(=O)(O)O [estramustine phosphate, Estramustine phosphate]
- Immunosuppression (PBMCs [2]): no significant immunosuppression in most cases
- Immune suppression (PBMCs [3]; full dose (560 mg/day) with peptide vaccination, cases 2 and 3, recovered on discontinuing): severe immune suppression
- Immune suppression (PBMCs [3]; half/low dose (280 mg/day) with the peptide, 8 cases tested): no significant immune suppression
- Clinical Response, number of PD (HRPC patients [4]; [9]): 3
- Clinical Response, number of SD (HRPC patients [4]; [9]): 1
- Response, Cellular Immunity (HRPC patients [4]; [9]): 3/4
- Response, Humoral Immunity (HRPC patients [4]; [9]): 4/4
- Clinical Response, number of PD (HRPC patients [4]; [10]): 12PD
- Clinical Response, number of PR (HRPC patients [4]; [10]): 10PR,
- Clinical Response, number of SD (HRPC patients [4]; [10]): 10SD,
- Response, Cellular Immunity (HRPC patients [4]; [10]): 23/31
- Response, Humoral Immunity (HRPC patients [4]; [10]): 27/32
- Clinical Response, number of PD (HRPC patients [4]; [11]): 5PD
- Response, Cellular Immunity (HRPC patients [4]; [11]): 0/3
- Response, Humoral Immunity (HRPC patients [4]; [11]): 1/2

Compound: AYDFLYNYL [SART 2161-169]
- Anti-peptide IgG, Pre (peptide-specific IgG [5]): +
- Cellular response to peptide during the combination therapy, 6th ([6]; after 6th vaccination): Ar (p* ≦ 0.1 and 500 ≦ net**)
- Cellular response to peptide during the combination therapy, 12th ([6]; after 12th vaccination): B (p ≦ 0.05 and 25 ≦ net < 50) and AAC
- Cellular response to peptide during the combination therapy, 18th ([6]; after 18th vaccination): ArA and ArArAA
- Cellular response to peptide during the combination therapy, Pre ([6]; before combination therapy, grade of each positive well of quadruplicate IFN-γ assay): A (p ≦ 0.05 and 50 ≦ net)
- Cellular response to peptide, Pre (mean specific IFN-γ production) [7]: 0 pg/mL
- Anti-peptide IgG during the combination therapy, 6th (peptide-specific IgG [8]; after 6th vaccination): −
- Anti-peptide IgG during the combination therapy, 12th (peptide-specific IgG [8]; after 12th vaccination): −
- Anti-peptide IgG during the combination therapy, 18th (peptide-specific IgG [8]; after 18th vaccination): −
- Anti-peptide IgG during the combination therapy, Pre (peptide-specific IgG [8]; before combination therapy): −
